We go through eight molecules from patent publication US20240327382A1 (ALMAC DISCOVERY LIMITED, priority 2021, published 2024).

The nature of one data set: In vivo mouse PK. The conditions noted are these: C57BL/6N mice, IV 1 mg/kg.
Data set [1] in a line: Thermodynamic solubility assay. The data set is classed as physicochemical. The conditions noted are these: aqueous buffer, thermodynamic from solid, PBS buffer pH 7.4, read-out: TSol. Here is the method:
Test compound (˜0.5 mg, accurately weighed) was suspended in PBS buffer pH 7.4 (Dulbecco A) to a concentration of 1 mg/mL in a high recovery glass vial in duplicate. The suspensions were shaken at 300 rpm at rt for 64 h. About 250 μL of suspension were then transferred to a MultiScreen® Solubility filter plate (Millipore) in duplicate. Concentrations of the filtrates were then quantified against a 5-point calibration curve in a mixture of acetonitrile/PBS buffer (top concentration […]). After filtration and matrix match, the calibration and assay plates were analysed on a Bioteck Synergy 4 plate reader (240-400 nm). Final concentration of the test compound in the filtrate was calculated using the slope of the calibration curve.

Data set [2] is described as follows: Caco-2 permeability assay. The class given is in vitro ADME. The conditions noted are these: human, apical to basolateral (A:B), read-out: caco-2 Papp AB. On the procedure: Caco-2 cells are commonly used as an in vitro model for the prediction of human intestinal absorption of test compounds. When cultured, Caco-2 cells (derived from a human colorectal carcinoma) spontaneously differentiate into monolayers of polarised enterocytes. The cells are seeded on multiwell-insert plates and form a confluent monolayer over 20 d before the assay. On day 20, compound was added to the apical side of the membrane and the flux of the compound across the monolayer was monitored over 2 h. All data was generated at Cyptotex.

For data set [3], the target named is T1, USP19 (Homo sapiens, UniProt O94966).
T1 construct: expressed in transfected cells; host or cells: HEK293T
T1 sequence (O94966 1-1318): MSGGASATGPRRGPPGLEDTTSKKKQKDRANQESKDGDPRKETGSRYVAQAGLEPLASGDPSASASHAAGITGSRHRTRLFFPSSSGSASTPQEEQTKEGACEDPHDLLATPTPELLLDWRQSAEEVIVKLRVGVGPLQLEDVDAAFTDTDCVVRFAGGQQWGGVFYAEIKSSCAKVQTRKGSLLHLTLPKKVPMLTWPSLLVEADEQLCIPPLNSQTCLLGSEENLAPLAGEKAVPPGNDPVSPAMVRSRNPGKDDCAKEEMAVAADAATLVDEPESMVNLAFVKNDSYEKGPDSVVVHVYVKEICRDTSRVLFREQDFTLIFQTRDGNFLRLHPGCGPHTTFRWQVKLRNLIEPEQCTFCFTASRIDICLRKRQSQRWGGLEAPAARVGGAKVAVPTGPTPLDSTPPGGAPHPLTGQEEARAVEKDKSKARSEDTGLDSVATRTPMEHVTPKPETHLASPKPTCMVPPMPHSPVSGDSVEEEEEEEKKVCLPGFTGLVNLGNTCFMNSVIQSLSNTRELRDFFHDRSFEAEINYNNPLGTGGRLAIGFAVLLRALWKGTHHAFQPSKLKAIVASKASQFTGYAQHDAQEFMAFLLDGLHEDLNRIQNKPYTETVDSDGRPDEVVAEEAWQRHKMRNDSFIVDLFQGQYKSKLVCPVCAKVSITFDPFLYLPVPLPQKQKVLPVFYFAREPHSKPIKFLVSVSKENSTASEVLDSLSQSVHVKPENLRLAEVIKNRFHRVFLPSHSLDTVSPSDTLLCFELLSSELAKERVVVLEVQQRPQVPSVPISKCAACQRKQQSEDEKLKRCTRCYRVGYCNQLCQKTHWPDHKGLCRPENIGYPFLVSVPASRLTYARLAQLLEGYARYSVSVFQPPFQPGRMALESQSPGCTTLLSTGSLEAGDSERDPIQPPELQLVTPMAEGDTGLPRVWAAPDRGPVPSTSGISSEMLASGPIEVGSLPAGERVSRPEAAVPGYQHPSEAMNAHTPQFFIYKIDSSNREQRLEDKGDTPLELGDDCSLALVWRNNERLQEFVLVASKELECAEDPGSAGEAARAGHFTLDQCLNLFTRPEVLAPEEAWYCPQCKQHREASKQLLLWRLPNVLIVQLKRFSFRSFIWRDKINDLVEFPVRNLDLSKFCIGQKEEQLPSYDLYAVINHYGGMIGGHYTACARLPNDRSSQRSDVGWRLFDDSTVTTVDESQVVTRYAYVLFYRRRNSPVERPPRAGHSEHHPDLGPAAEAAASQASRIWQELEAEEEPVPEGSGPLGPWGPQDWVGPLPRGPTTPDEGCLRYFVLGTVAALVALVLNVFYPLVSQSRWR
Kind of data set: Cellular target engagement using HTRF assay (USP19-Flag transfected cells). The class given is cell-based. The conditions noted are these: HEK293T cells; read-out: HTRF TE IC50. Here is the method: USP19 cellular target engagement was determined in a homogenous time resolved fluorescence (HTRF) assay using HA-tagged ubiquitin vinyl pentynyl sulfone (VPS) probe (UbiQ-193, UbiQ Bio) and a USP19-Flag overexpression construct. Inhibitors were stored as 10 mM DMSO stocks in an inert environment (low humidity, dark, low oxygen, rt) using the StoragePod® system (Roylan Developments). USP19-Flag transfected cells were incubated with serially diluted compound in an 11 point dose response curve (from 50 μM to 0.01 nM) for 2 h and then washed in PBS and lysed. Unless otherwise stated, all HTRF reagents were purchased from CisBio. HTRF assays using cell lysates were completed in 384 well plates (Greiner) in a 20 μL total volume. Cell lysates were incubated with HA-tagged ubiquitin VPS probe for 40 min in PPI detection buffer prior to addition of anti-HA and anti-FLAG HTRF detection reagents. HTRF was measured every 1 h for 18 h using a Pherastar FSX plate reader (excitation of 337 nm, emission of 620/665 nm). Data was normalised to DMSO (no compound controls) and fitted using IC50 values derived using Prism (GraphPad) using nonlinear regression curve fitting.

A short description of data set [4]: Kinetic solubility (KSol). The data set is classed as physicochemical.
The test system of data set [5] is USP19. Kind of data set: Cellular target engagement using western blotting (Ub-PA / Ub-VME probe). The class given is cell-based. The conditions noted are these: breast cancer, neuroblastoma and mouse skeletal muscle cell lines. Here is the method:
Cells from a breast cancer cell line, a neuroblastoma cell line and a mouse skeletal muscle cell line were treated with a USP19 inhibitor compound (ADC-141) for 2 hrs, lysed (lysis buffer: 50 mM Tris pH 7.4; 150 mM NaCl; 5 mM MgCl2; 0.5 mM EDTA; 0.5% NP40; 10% Glycerol; 2 mM DTT) and Ubiquitin-propargylamine (Ub-PA; UbiQ) or Ubiquitin-vinyl methyl ester (Ub-VME; Almac Sciences Scotland Limited) was then added. Samples were analysed by western blotting probing for USP19 (EC50 determined by densitometry).

A further data set has as its target T2, Full-length USP19 (Homo sapiens, UniProt O94966).
T2 construct: Full-length USP19 was purchased from Boston Biochem (E-576); purchased Boston Biochem E-576
T2 sequence (O94966 1-1318): T1 sequence (O94966 1-1318)
Briefly: USP19 fluorescence polarisation (FP) assay, Ubiquitin-Lys-TAMRA substrate. The data set is classed as biochemical. The conditions noted are these: for IC50: average of at least two duplicate experiments. The method in brief: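 Full-length human USP19 (added at 2.5 nM) was preincubated 30 min at RT with inhibitor (serial dilutions 200 μM to 2 μM) in 50 mM HEPES pH 7.4, 150 mM NaCl, 5 mM DTT, 0.05% BSA, 0.05% CHAPS. Ubiquitin-Lys-TAMRA isopeptide substrate (added at 500 nM) started the reaction, and FP (Ex 530/Em 575 nm) was read every 15 min over 90 min. IC50 came from non-linear regression of signal normalised to no-compound control, averaged over at least two duplicate experiments.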

The next data set concerns male C57bl/6 mice. Kind of data set: Sciatic nerve denervation muscle wasting model. The class given is in vivo, mouse. The conditions noted are these: 75 mg/kg IP twice daily. On the procedure:
To induce muscle wasting, a 1 cm segment of the sciatic nerve in the thigh was removed from mice (male C57bl/6 mice at 8-10 weeks of age; n=10 per group) under isoflurane anaesthesia and analgesia with carprofen. A sham operation was carried out in the opposite leg as a control.
Mice were randomised into Vehicle or Test groups, with all animals weighed to ensure a similar mean weight in each group. ADC-141, a USP19 inhibitory compound at 75 mg/kg or Vehicle was administered IP twice daily starting from the evening post-operation.
Mice were sacrificed 14 days later. Fat pads, liver, gastrocnemius and tibialis anterior muscles were harvested. Tissue mass were measured in both groups.

For data set [6], the system named is diet-induced obese (DIO) mouse. Kind of data set: Diet-induced obesity (DIO) mouse model with OGTT. The data set is classed as in vivo, Male C57BL6/J mice. The conditions noted are these: 5 or 25 mg/kg i.p. BID. On the procedure:
To assess obesity and insulin resistance, a diet-induced obesity mouse model was used.
Male C57BL6/J mice were continuously provided with high-fat diet (D12451, 45% kcal as fat; Research Diets, New Jersey, USA) and filtered tap water ad libitum for the duration of the study. From day 0, mice were administered vehicle i.p. BID, USP19 inhibitor (ADC-141) i.p. BID at 5 mg/kg or 25 mg/kg, or positive control liraglutide 0.1 mg/kg s.c. BID.
Body weight was measured daily. On Day 13, body composition was be assessed by DEXA. On Day 15, fasting glucose and insulin levels were measured before and during an oral glucose tolerance test (OGTT) to assess improvements in glucose control. The OGTT was performed following an overnight fast. […] An OGTT was performed the following morning (approx. 16 h post fast). Mice were dosed with vehicle or test compound (starting at 08.45) to a timed schedule 30 minutes prior to the administration of the glucose challenge (2.0 g/kg po). Blood samples were taken immediately prior to dosing (B1), immediately prior to glucose administration (B2) and 15, 30, 60 and 120 minutes after glucose administration.

SMILES strings stand for the structures.

As for `N[C@@H]1CCN(C(=O)N2CC[C@@](O)(Cn3cnc(-c4ccccc4)cc3=O)C3(CCCC3)C2)[C@H](c2ccccc2)C1` [F 11 9 N W032, reference compound], the clearance in the data set “In vivo mouse PK” amounted to 3 mL/min/kg. Moreover, the half-life in the data set “In vivo mouse PK” (read-out: IV t1/2 (converted)) was 2 h. Moreover, the solubility thermodynamic at 64 h in data set [1] stood at 1 µM.

As to `O=C(N1CC[C@@H](Cn2ccc(-c3ccccc3)cc2=O)C2(CCCC2)C1)N1CCNC[C@H]1c1ccccc1`, the Papp A→B at 2 h in data set [2] is 1 ×10⁻⁶ cm/s. Besides, at USP19 [3], the IC50 worked out at 3000 nM. Further, the solubility thermodynamic at 64 h in [1] worked out at 1 µM.

As for `C[C@H](CC(F)(F)F)C(=O)N1CC[C@@](O)(Cn2cnc(-c3ccccc3)cc2=O)C2(CCCC2)C1` [F 11 9 N W 11], the KSol in [4] amounted to 1 µM.

As to `C[C@H](CC1CCCCC1)C(=O)N1CC[C@@](O)(Cn2cc(C(=O)N3CCNCC3)c(-c3ccccc3)cc2=O)C2(CCCC2)C1` [ADC-141, 1-(((S)-7-((R)-3-cyclohexyl-2-methylpropanoyl)-10-hydroxy-7-azaspiro[4.5]decan-10-yl)methyl)-4-phenyl-5-(piperazine-1-carbonyl)pyridin-2(1H)-one], in the data set on USP19 [5], the cell permeability result was “good cell permeability”. Besides, the “EC50 determined by densitometry” value in the data set on USP19 [5] (2 hrs treatment) is reported as “low nanomolar”. The USP19 inhibitory activity entry at Full-length USP19 (fluorescence polarisation assay, qualitative) was “shown to have USP19 inhibitory activity”. In the data set on male C57bl/6 mice (2 weeks, vs vehicle), the liver mass result is listed as “increase in liver mass” and the “mass of the epididymal fat pad” value is listed as “significantly smaller fat pads”. In the data set on male C57bl/6 mice (14 days, trend did not reach significance), the “muscle wasting in the gastrocnemius muscle” value is “reduced”. For the same molecule, the “loss of muscle mass in the tibialis anterior muscle” value in the data set with male C57bl/6 mice (14 days, vs vehicle) is listed as “significantly lower loss of muscle mass”. In data set [6] (DEXA Day 13), the fat mass result is reported as “reduction in fat mass” and the lean body mass result is “preserved”. Further, in [6] (Day 15), the “plasma glucose in OGTT” value is reported as “decreased plasma glucose” and the “plasma insulin in OGTT” value is given as “decreased plasma insulin”. The OGTT response result in [6] (Day 15, glucose 2.0 g/kg po) is reported as “dose-dependent improvement in OGTT response”. Also, the “overall body weight gain” value in data set [6] (high-fat diet) was “reduction in overall body weight gain”. Also, the cumulative food intake result in [6] (vs vehicle control) was “reduction in cumulative food intake”.

As for `O=C(N1CC[C@@H](Cn2cnc(-c3ccccc3)cc2=O)C2(CCCC2)C1)N1CCNC[C@H]1c1ccccc1`, the Papp A→B at 2 h in data set [2] turned out to be 1 ×10⁻⁶ cm/s. Moreover, the IC50 on USP19 [3] worked out at 1000 nM.

Take `CC(C)(C)OC(=O)CN[C@@H]1CCN(C(=O)N2CC[C@@H](Cn3cnc(-c4ccccc4)cc3=O)C3(CCCC3)C2)[C@H](c2cc(F)ccc2F)C1` [Example 154, tert-Butyl ((2S,4R)-2-(2,5-difluorophenyl)-1-((R)-10-((6-oxo-4-phenylpyrimidin-1(6H)-yl)methyl)-7-azaspiro[4.5]decane-7-carbonyl)piperidin-4-yl)glycinate]: the concentration for half-maximal inhibition (IC50) on Full-length USP19 is below 10 nM.

As for `CC(C)N[C@@H]1CCN(C(=O)N2CC[C@@H](Cn3cnc(-c4ccccc4)cc3=O)C3(CCCC3)C2)[C@H](c2cc(F)cc(F)c2)C1` [Example 192, 3-(((R)-7-((2S,4R)-2-(3,5-Difluorophenyl)-4-(isopropylamino)piperidine-1-carbonyl)-7-azaspiro[4.5]decan-10-yl)methyl)-6-phenylpyrimidin-4(3H)-one], the IC50 at Full-length USP19 is below 10 nM.

As for `COc1ccccc1-c1cc(=O)n(C[C@@H]2CCN(C(=O)N3CC[C@@H](N4CCOCC4)C[C@H]3c3ccccc3)CC23CCCC3)cn1` [Example 110, 6-(2-Methoxyphenyl)-3-(((R)-7-((2S,4R)-4-morpholino-2-phenylpiperidine-1-carbonyl)-7-azaspiro[4.5]decan-10-yl)methyl)pyrimidin-4(3H)-one], the IC50 at Full-length USP19 fell in the range of 10 to 100 nM.
